Source: patent publication US20220142165A1 (priority 2019, published 2022)

Columns and labels:
[1] = tested on: tomato late blight pathogen (Phylophihora infeslans); assay: whole plant or invertebrate; type: in vivo; conditions: Phytophthora infestans, 96 h, read-out: Control value
[2] = tested on: grape downy mildew pathogen (Plasmopara viticola); assay: Grape downy mildew control test (Test Example 2); type: in vivo; conditions: Plasmopara viticola, foliar, 168 h; 100 ppm by mass, sprayed on grape leaf disc (variety Chardonnay) before inoculation; blotch area ratio seven days after inoculation, 20° C.
Experimental: 5 parts by mass of the compound according to the present invention, 93.5 parts by mass of dimethylformamide, and 1.5 parts by mass of polyoxyethylene alkylaryl ether were mixed and dissolved to prepare an emulsion (I) containing 5% by mass of an active ingredient.
The control value was calculated according to the following formula.
Control value (%)=100−{blotch area ratio in treated area/blotch area ratio in untreated area}×100
Water was added to the emulsion (I) such that the concentration of the heterocyclic compound became 100 ppm by mass, and then the heterocyclic compound was dissolved therein to obtain a pharmaceutical solution. Then, the pharmaceutical solution was sprayed on a leaf disc of grape (variety “Chardonnay”) placed on agar in a 6-well plate. After air-drying, the leaf disc on which the pharmaceutical solution was sprayed was inoculated with zoosporangia of grape downy mildew pathogen (Plasmopara viticola) in a suspension by spraying the suspension thereon (treated area). As a control, a leaf disc on which no pharmaceutical solution was sprayed was inoculated in the same way as mentioned above (untreated area). The resultant leaf discs were left in a moist chamber at 20° C. Seven days after inoculation, the grape leaf discs were visually observed to measure the blotch area ratio to calculate the control value.

SMILES: CO/N=C/c1cc(C(Oc2ccc3ncsc3c2)c2nnco2)ncc1C#N (stereo not drawn) [b-40]
- melting point: 129 to 131 °C
- pest or weed control at 125 ppm [1]: ≥ 75%
- pest or weed control at 100 ppm [2]: ≥ 75%

SMILES: CO/N=C/c1cc(C(Oc2ccc3nc(C4CC4)sc3c2)c2nnco2)ncc1F (stereo not drawn) [b-76]
- melting point: 103 to 104 °C
- pest or weed control at 125 ppm [1]: ≥ 75%
- pest or weed control at 100 ppm [2]: ≥ 75%

SMILES: CCO/N=C/c1ccnc(C(Oc2ccc3ncsc3c2)c2nnco2)c1 (stereo not drawn) [b-17]
- melting point: 113 to 114 °C
- pest or weed control at 125 ppm [1]: ≥ 75%
- pest or weed control at 100 ppm [2]: ≥ 75%

SMILES: CO/N=C/c1cc(C(Oc2cc3scnc3cc2F)c2nnco2)ncc1F (stereo not drawn) [b-57]
- melting point: 150 to 151 °C
- pest or weed control at 125 ppm [1]: ≥ 75%
- pest or weed control at 100 ppm [2]: ≥ 75%

SMILES: CO/N=C/c1cc(C(Oc2ccc3nnsc3c2)c2nnco2)ncc1F (stereo not drawn) [b-58]
- melting point: 134 to 135 °C
- pest or weed control at 125 ppm [1]: ≥ 75%
- pest or weed control at 100 ppm [2]: ≥ 75%

SMILES: CO/N=C/c1cc(C(Oc2ccc3nc(C)sc3c2)c2nnco2)ncc1F (stereo not drawn) [b-27]
- melting point: 129 to 131 °C
- pest or weed control at 125 ppm [1]: ≥ 75%
- pest or weed control at 100 ppm [2]: ≥ 75%

SMILES: CO/N=C/c1cc(C(Oc2cc(Br)c3nc(C)sc3c2)c2nnco2)ncc1F (stereo not drawn) [b-42]
- melting point: 70 to 75 °C
- pest or weed control at 125 ppm [1]: ≥ 75%
- pest or weed control at 100 ppm [2]: ≥ 75%

SMILES: CO/N=C/c1cc(C(Oc2cc(F)c3ncsc3c2)c2nnco2)ncc1F (stereo not drawn) [b-45]
- melting point: 137 to 139 °C
- pest or weed control at 125 ppm [1]: ≥ 75%
- pest or weed control at 100 ppm [2]: ≥ 75%

SMILES: CO/N=C/c1ccnc(C(Oc2ccc3nc(C)sc3c2)c2nnco2)c1 (stereo not drawn) [b-21]
- melting point: 107 to 109 °C
- pest or weed control at 125 ppm [1]: ≥ 75%
- pest or weed control at 100 ppm [2]: ≥ 75%

SMILES: CCCc1cc(OC(c2cc(/C=N/OC)ccn2)c2nnco2)cc2scnc12 (stereo not drawn) [b-24]
- melting point: 80 to 82 °C
- pest or weed control at 125 ppm [1]: ≥ 75%
- pest or weed control at 100 ppm [2]: ≥ 75%

SMILES: Clc1ccc(C(Oc2ccc3nnsc3c2)c2nnco2)nc1 (stereo not drawn) [b-12]
- melting point: 133 to 134 °C
- pest or weed control at 125 ppm [1]: ≥ 75%
- pest or weed control at 100 ppm [2]: ≥ 75%

SMILES: Fc1ccc(C(Oc2ccc3nnsc3c2)c2nnco2)nc1 (stereo not drawn) [b-10]
- melting point: 141 to 142 °C
- pest or weed control at 125 ppm [1]: ≥ 75%
- pest or weed control at 100 ppm [2]: ≥ 75%

SMILES: CCc1cc(OC(c2cc(/C=N/OCCOC)c(F)cn2)c2nnco2)cc2sc(C)nc12 (stereo not drawn) [b-87]
- melting point: 138 to 139 °C
- pest or weed control at 125 ppm [1]: ≥ 75%
- pest or weed control at 100 ppm [2]: ≥ 75%

SMILES: C=Cc1nc2ccc(OC(c3cc(/C=N/OC)c(F)cn3)c3nnco3)cc2s1 (stereo not drawn) [b-63]
- melting point: 88 to 89 °C
- pest or weed control at 125 ppm [1]: ≥ 75%
- pest or weed control at 100 ppm [2]: ≥ 75%

SMILES: CO/N=C/c1cc(C(Oc2ccc3ncsc3c2)c2nnco2)ncc1F (stereo not drawn) [b-15]
- melting point: 136 to 138 °C
- pest or weed control at 125 ppm [1]: ≥ 75%
- pest or weed control at 100 ppm [2]: ≥ 75%

SMILES: CO/N=C/c1ccnc(C(Oc2cc(F)c3ncsc3c2)c2nnco2)c1 (stereo not drawn) [b-22]
- melting point: 113 to 148 °C
- pest or weed control at 125 ppm [1]: ≥ 75%
- pest or weed control at 100 ppm [2]: ≥ 75%
